Measurements: US8093285B2, “Aminopiperidinyl derivatives and uses thereof” (Roche Palo Alto LLC, priority 2008, dated 2012)

Columns and labels:
Format in all cases: binding
[1] = target: T1, human serotonin transporter (hSERT) (Homo sapiens, UniProt P31645); experiment: Screening for human serotonin transporter (hSERT) antagonists, scintillation proximity assay (SPA); settings: competition with [3H]-Citalopram; membranes of HEK-293 cells expressing recombinant hSERT
T1 construct: expressed in transfected cells; Tatsumi et al. 1997
Experimental: The screening assay of this example was used to determine the affinity of ligands at the hSERT transporter by competition with [^3H]-Citalopram.
Scintillation Proximity Assay (SPA) works by bringing radioligand within close proximity to the bead's scintillant to stimulate light emission. In this assay, the receptor-containing membranes were pre-coupled to the SPA beads and the binding of the appropriate radioligand to the transporter was measured. The light emission was proportional to the amount of bound radioligand. Unbound radioligand produced no signal as a result of distant proximity to scintillant (lack of energy transfer). […]
(§1) Cell membranes were prepared using a membrane preparation buffer of 50 mM TRIS (pH 7.4). […] After a second centrifugation, the pellet was re-homogenized and brought to a final volume determined during the assay. […]
The % inhibition was calculated for each compound tested [(Compound counts per minute (CPM) at maximum concentration-Non-Specific CPM)/Total CPM*100]. […]
(§2) [formula] where max=total binding, min=non specific binding, x=concentration (M) of the tested compound and n=Hill slope. The inhibition dissociation constant (Ki) of each compound was determined according to the method of Cheng-Prusoff and then converted into negative logarithm (pKi) of the Ki.

[2] = target: T2, human norepinephrine transporter (hNET) (Homo sapiens, UniProt P23975); experiment: Screening for compounds active at human norepinephrine transporter (hNET), scintillation proximity assay (SPA); settings: competition with [3H]-Nisoxetine; membranes of HEK-293 cells expressing recombinant hNET
T2 construct: expressed in transfected cells; Clone: HEK-hNET #2)
Experimental: This assay was used to determine the affinity of ligands for the hNET transporter by competition with [^3H]-Nisoxetine. As in the hSERT assay of the above example, receptor-containing membranes were pre-coupled to the SPA beads and the binding of the appropriate radioligand to the transporter was measured. The light emission was proportional to the amount of bound radioligand, with unbound radioligand producing no signal.
HEK-293 cells (Tatsumi et al., Eur. J. Pharmacol. 1997, 30, 249-258) stably expressing recombinant hNET (Clone: HEK-hNET #2) were maintained with media (DMEM hi glucose with 10% FBS, 300 μg/ml G418 and 2 mM L-Glutamine) and incubated at 37° C. with 5% CO2. Cells were released from culture flasks using PBS for 1-2 minutes. […]
as §1
^3[H] […] The mixtures were allowed to stand at room temperature for one hour, and were then counted on a Packard TopCount LCS, a generic SPA counting protocol settings (Energy Range: Low, Efficiency Mode: Normal, Region A: 1.50-35.00, Region B: 1.50-256.00, Count Time (min.): 0.40, Background Subtract: none, Half-Life Correction: no, Quench Indicator: tSIS, Platemap blank subtraction: No, Cross talk reduction: Off). […]

[3] = target: T3, human dopamine transporter (hDAT) (Homo sapiens, UniProt Q01959); experiment: Screening for compounds active at human dopamine transporter, scintillation proximity assay (SPA); settings: competition with [3H]-Vanoxerine; HEK-293 cells expressing recombinant hDAT
T3 construct: expressed in transfected cells; Tatsumi et al. 1997
Experimental: This assay was used to determine the affinity of ligands for the dopamine transporter by competition with [^3H]-Vanoxerine.
HEK-293 cells (Tatsumi et al., Eur. J. Pharmacol. 1997, 30, 249-258) stably expressing recombinant hDAT were maintained with media (DMEM hi glucose with 10% FBS, 300 μg/ml G418 and 2 mM L-Glutamine) and incubated at 37° C. with 5% CO2. Cells were plated four hours prior to experiment by placing approximately 30,000 cells per well (in PBS) on white, opaque Cell-Tak coated 96 well plates. Extra buffer was apriated from the cell plates using an ELx405 plate washer.
^3[H] vanoxerine (GBR 12909) radioligand, specific activity approximately 59 Ci/mmol, stock concentration, 400 nM, and 50 mM Tris-HCl, 300 mM NaCl, (pH 7.4) buffers were used for Scintillation Proximity Assay IC50/Ki determination. […]
The % inhibition was calculated for each compound tested [(Compound CPM at maximum concentration-Non-Specific CPM)/Total CPM*100]. […]
as §2

T1 sequence (P31645 whole entry): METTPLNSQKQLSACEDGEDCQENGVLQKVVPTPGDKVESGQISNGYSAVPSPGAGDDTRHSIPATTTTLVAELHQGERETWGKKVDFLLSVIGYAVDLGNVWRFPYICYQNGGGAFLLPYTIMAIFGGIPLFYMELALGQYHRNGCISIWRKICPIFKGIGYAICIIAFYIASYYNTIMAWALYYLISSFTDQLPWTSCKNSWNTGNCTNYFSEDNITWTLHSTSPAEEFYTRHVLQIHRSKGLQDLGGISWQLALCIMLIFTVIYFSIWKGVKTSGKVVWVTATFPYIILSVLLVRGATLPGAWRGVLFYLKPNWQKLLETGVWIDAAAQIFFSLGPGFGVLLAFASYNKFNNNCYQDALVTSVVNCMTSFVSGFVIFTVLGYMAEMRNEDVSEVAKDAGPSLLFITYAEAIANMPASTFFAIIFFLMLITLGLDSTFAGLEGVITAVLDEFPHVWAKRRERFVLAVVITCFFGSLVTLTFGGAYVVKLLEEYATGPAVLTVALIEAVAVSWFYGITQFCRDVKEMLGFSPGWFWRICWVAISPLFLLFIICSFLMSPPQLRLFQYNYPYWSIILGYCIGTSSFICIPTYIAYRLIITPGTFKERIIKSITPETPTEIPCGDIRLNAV
T3 sequence (Q01959 whole entry): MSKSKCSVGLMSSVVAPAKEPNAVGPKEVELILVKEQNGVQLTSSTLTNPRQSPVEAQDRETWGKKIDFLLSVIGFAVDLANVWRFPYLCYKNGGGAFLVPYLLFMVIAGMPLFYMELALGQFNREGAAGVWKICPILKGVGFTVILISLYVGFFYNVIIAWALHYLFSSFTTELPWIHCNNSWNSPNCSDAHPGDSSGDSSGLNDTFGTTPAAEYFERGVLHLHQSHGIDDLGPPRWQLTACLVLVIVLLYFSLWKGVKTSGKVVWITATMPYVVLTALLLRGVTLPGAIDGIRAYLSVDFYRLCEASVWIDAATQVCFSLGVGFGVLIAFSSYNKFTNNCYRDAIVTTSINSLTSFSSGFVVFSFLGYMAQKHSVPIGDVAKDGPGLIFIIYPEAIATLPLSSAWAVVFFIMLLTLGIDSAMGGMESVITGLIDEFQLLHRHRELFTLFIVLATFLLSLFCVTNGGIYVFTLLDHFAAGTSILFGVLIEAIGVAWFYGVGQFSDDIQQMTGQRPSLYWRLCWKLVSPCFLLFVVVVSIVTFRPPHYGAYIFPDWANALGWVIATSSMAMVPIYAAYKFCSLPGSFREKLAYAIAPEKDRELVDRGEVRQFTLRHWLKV
T2 sequence (P23975 whole entry): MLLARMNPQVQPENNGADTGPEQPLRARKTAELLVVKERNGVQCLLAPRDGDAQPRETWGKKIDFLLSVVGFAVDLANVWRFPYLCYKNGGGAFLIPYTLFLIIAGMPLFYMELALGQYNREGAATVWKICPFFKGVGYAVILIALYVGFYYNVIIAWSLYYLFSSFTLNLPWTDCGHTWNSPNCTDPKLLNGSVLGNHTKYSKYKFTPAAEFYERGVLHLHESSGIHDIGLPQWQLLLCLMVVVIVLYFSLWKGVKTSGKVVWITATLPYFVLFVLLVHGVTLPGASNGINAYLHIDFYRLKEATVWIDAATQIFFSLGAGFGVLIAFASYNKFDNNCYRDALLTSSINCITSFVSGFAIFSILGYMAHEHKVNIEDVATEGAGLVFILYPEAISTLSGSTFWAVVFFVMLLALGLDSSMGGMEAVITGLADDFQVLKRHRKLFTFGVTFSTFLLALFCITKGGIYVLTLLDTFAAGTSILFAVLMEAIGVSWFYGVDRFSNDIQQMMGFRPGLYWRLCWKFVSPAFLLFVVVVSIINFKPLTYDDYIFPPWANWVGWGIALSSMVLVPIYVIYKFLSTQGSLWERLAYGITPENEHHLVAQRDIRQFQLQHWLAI

Fc1cccc(CN(c2ccc3[nH]ncc3c2)C2CCNCC2)c1 [Compound 53, (3-Fluoro-benzyl)-(1H-indazol-5-yl)-piperidin-4-yl-amine]
Ki [1]: ~0.316 nM

COc1cccc(CN(c2ccc3[nH]ncc3c2)C2CCNCC2)c1 [Compound 54, (1H-Indazol-5-yl)-(3-methoxy-benzyl)-piperidin-4-yl-amine]
Ki [2]: ~1.58 nM

NS(=O)(=O)c1cccc(CN(c2ccc3[nH]ccc3c2)C2CCNCC2)c1 [Compound 69, 3-{[(1H-Indol-5-yl)-piperidin-4-yl-amino]-methyl}-benzenesulfonamide]
Ki [3]: ~10 nM
